Measurements from patent US20120020915A1, “Compounds and Methods for Treating Cancer and Diseases of the Central Nervous System” (QUEENS UNIVERSITY AT KINGSTON, priority 2007, published 2012).
Where a name gives a salt, the structure may show the parent alone. Read-outs that look alike come from different tables or passages of the source. Each block holds one compound with its values, some of them ahead of it.

Experiments:
HO-1 (rat spleen) = target: T1, HO-1 (rat spleen) (Rattus norvegicus, UniProt P06762); assay: HO enzymatic activity, rat spleen microsomal fraction (CO formation from methemalbumin); assay type: biochemical
T1 construct: Spleen microsomes were used as a source of HO-1; from tissue; host or cells: spleen microsomal fraction of adult male Sprague-Dawley rats
T1 sequence (P06762 1-289): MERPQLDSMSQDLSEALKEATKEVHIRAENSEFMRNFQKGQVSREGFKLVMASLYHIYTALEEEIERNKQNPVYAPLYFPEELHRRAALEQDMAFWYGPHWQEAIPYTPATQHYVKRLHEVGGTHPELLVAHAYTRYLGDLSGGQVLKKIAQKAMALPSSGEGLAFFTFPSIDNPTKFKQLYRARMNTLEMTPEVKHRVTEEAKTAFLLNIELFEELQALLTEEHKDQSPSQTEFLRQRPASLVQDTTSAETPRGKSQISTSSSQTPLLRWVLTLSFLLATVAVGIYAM
Protocol: (§1) Incubations for HO activity analysis were done under conditions for which the rate of CO formation (pmol CO×min^−1×mg protein^−1) was linear with respect to time and microsomal protein concentration. Briefly, reaction mixtures (150 μL) consisting of 100 mM phosphate buffer (pH 7.4), 50 μM methemalbumin, and 1 mg/mL protein were pre-incubated with the inhibitors at final concentrations ranging from 0.1-100 μM for 10 minutes at 37° C. Reactions were initiated by adding NADPH at a final concentration of 1 mM and incubations were performed for an additional 15 minutes at 37° C.
(§2) Incubations for HO activity analysis were done under conditions for which the rate of CO formation (pmol CO/mg protein/minute) was linear with respect to time and microsomal protein concentration. Briefly, reaction mixtures (150 μL) consisting of 100 mM phosphate buffer (pH 7.4), 50 μM methemalbumin and 1 mg/mL protein were pre-incubated with the vehicle (ethanol or water in which the inhibitors were dissolved), or inhibitors at final concentrations ranging from 0.1-1000 μM for 10 minutes at 37° C. Reactions were initiated by adding β-NADPH at a final concentration of 1 mM and incubations were carried out for an additional 15 minutes at 37° C. Reactions were stopped by instantly freezing the reaction mixture on pulverized dry ice and CO formation was measured by gas chromatography using a TA 3000R Process Gas Analyzer (Trace Analytical/Ametek, Newark, Del., USA).
(§3) The values on the abscissa represent the decimal logarithm of the inhibitor's concentration (in μM), whereas the values of the activity on the ordinate are expressed as a percentage of the control experiments without inhibitor.
(§4) The IC50 values for the replicate experiments were employed to generate the reported standard deviation value.

HO-2 (rat brain) = target: T2, HO-2 (rat brain) (Rattus norvegicus, UniProt P23711); assay: HO enzymatic activity, rat brain microsomal fraction (CO formation from methemalbumin); assay type: biochemical
T2 construct: brain microsomes were used as a source of HO-2; from tissue; host or cells: brain microsomal fraction of adult male Sprague-Dawley rats
T2 sequence (P23711 1-315): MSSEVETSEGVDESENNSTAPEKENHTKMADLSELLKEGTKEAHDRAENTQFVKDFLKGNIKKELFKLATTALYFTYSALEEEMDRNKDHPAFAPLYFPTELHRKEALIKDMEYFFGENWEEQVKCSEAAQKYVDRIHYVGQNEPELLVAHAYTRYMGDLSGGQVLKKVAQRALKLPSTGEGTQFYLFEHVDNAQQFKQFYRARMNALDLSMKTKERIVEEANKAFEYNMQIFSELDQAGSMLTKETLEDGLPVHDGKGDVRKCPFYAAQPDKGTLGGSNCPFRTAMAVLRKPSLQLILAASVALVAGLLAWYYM
Protocol: as §1, §2, §3, §4

[1] = CO formation from methemalbumin, mean ± SD of replicate experiments, read-out: IC50 HO-1 (rat spleen/μM)
[2] = CO formation from methemalbumin, mean ± SD of replicate experiments, read-out: IC50 HO-2 (rat brain)/μM)
[3] = IC50 HO-1 (rat spleen/μM), CO formation from methemalbumin, mean ± SD of replicate experiments
[4] = IC50 HO-2 (rat brain)/μM), CO formation from methemalbumin, mean ± SD of replicate experiments
[5] = IC50 HO-2 (rat brain)/μM), average ± SD of replicate experiments
[6] = IC50 HO-1 (rat spleen/μM), average ± SD of replicate experiments
[7] = average ± SD of replicate experiments, read-out: IC50 HO-1 (rat spleen/μM)
[8] = average ± SD of replicate experiments, read-out: IC50 HO-2 (rat brain)/μM)

- IC50 (HO-1 (rat spleen); [1]): > 100 µM
- IC50 (HO-2 (rat brain); [2]): > 100 µM
SMILES: O=C(c1ccc(-n2ccnc2)cc1)C1CC1 [QC-98, Cyclopropyl-(4-imidazol-1-yl-phenyl)methanone hydrochloride]

SMILES: O=C(CCc1ccccc1)Cn1cnnn1 [QC-118, 4-Phenyl-1-tetrazol-1-yl-butan-2-one hydrochloride]
- IC50 (HO-1 (rat spleen); [3]): 2.6 ± 0.9 µM
- IC50 (HO-2 (rat brain); [2]): 20 ± 10 µM

- IC50 (HO-1 (rat spleen); [1]): 14 ± 3 µM
SMILES: c1ccc(CCC2(Cn3cncn3)OCCO2)cc1 [QC-104, 2-(2-phenethyl)-2-{(1H-[1,2,4]triazol-1-yl)methyl}-1,3-dioxolane hydrochloride]

SMILES: Clc1ccc(CCC2(Cn3ccnc3)O[C@H]3CCCC[C@H]3O2)cc1 (stereo partly drawn) [QC-71, 1-{2-[2-(4-Chlorophenyl)-ethyl]-hexahydrobenzo[1,3]dioxol-2-ylmethyl}-1H-imidazole]
- IC50 (HO-1 (rat spleen); [3]): 69 ± 7 µM
- IC50 (HO-2 (rat brain); [4]): > 100 µM

SMILES: O=C(Cn1ccnc1)c1ccc(Cl)c(Cl)c1 [QC-189, 1-(3,4-Dichlorophenyl)-2-imidazol-1-yl-ethanone]
- IC50 (HO-2 (rat brain); [5]): 4.7 ± 0.7 µM

- IC50 (HO-1 (rat spleen); [1]): > 100 µM
- IC50 (HO-2 (rat brain); [2]): > 100 µM
SMILES: c1cn(CCCCCCn2ccnc2)cn1 [QC-89, 1,6-bis-(1H-imidazol-1-yl)hexane dihydrochloride]

SMILES: Clc1ccc(CCC2(Cn3ccnc3)OCCCO2)cc1 [QC-70, 2-[2-(4-chlorophenyl)ethyl]-2-[(1H-imidazol-1-yl)methyl]-1,3-dioxane hydrochloride]
- IC50 (HO-1 (rat spleen); [3]): 20 ± 4 µM
- IC50 (HO-2 (rat brain); [4]): > 100 µM

SMILES: O=C(Cn1ccnc1)c1ccc(Br)cc1 [QC-161, 1-(4-Bromophenyl)-2-imidazol-1-yl-ethanone hydrochloride]
- IC50 (HO-1 (rat spleen); [6]): 3.2 ± 0.8 µM
- IC50 (HO-2 (rat brain); [5]): 14 ± 2 µM

SMILES: Cc1nccn1CC(=O)CCc1ccc(Br)cc1 [QC-61, 4-(4-bromophenyl)-1-[(2-methyl)-1H-imidazol-1-yl]butan-2-one hydrochloride]
- IC50 (HO-1 (rat spleen); [3]): > 100 µM
- IC50 (HO-2 (rat brain); [4]): > 100 µM

- IC50 (HO-1 (rat spleen); [7]): > 100 µM
- IC50 (HO-2 (rat brain); [8]): > 100 µM
SMILES: O=C(CCc1ccccc1)Cn1cnc([N+](=O)[O-])n1 [QC-152, 1-(3-Nitro-[1,2,4]triazol-1-yl)-4-phenyl-butan-2-one]

SMILES: O=C(Cn1ccnc1)NCc1ccccc1 [QC-63, N-benzyl-2-(1H-imidazol-1-yl)-acetamide hydrochloride]
- IC50 (HO-1 (rat spleen); [1]): 12 ± 5 µM
- IC50 (HO-2 (rat brain); [4]): > 100 µM

SMILES: Cc1ccc(S(=O)(=O)OC[C@@H]2CO[C@](CCc3ccc(Cl)cc3)(Cn3ccnc3)O2)cc1 [QC-6, (2S,4S)-2-[2-(4-chlorophenyl)ethyl]-2-[(1H-imidazol-1-yl)methyl]-4-[(p-toluenesulfonyloxy)methyl]-1,3-dioxolane]
- IC50 (HO-1 (rat spleen); [3]): 21 ± 2 µM
- IC50 (HO-2 (rat brain); [4]): 23 ± 6 µM

- IC50 (HO-1 (rat spleen); [1]): > 100 µM
- IC50 (HO-2 (rat brain); [2]): > 100 µM
SMILES: CC(=O)NCCc1c[nH]cn1 [QC-138, N-[2-(1H-Imidazol-4-yl)-ethyl]-acetamide]

- IC50 (HO-1 (rat spleen); [1]): > 100 µM
- IC50 (HO-2 (rat brain); [2]): > 100 µM
SMILES: COC(=O)c1ncn(CC(=O)CCc2ccccc2)n1 [QC-135, 1-(2-Oxo-4-phenyl-butyl)-1H-[1,2,4]triazole-3-carboxylic acid methyl ester]

- IC50 (HO-1 (rat spleen); [7]): > 100 µM
- IC50 (HO-2 (rat brain); [8]): > 100 µM
SMILES: CCOC(=O)Cc1nnn(CC(=O)CCc2ccccc2)n1 [QC-178, [2-(2-Oxo-4-phenyl-butyl)-2H-tetrazol-5-yl]-acetic acid ethyl ester]

SMILES: N#CSC[C@@H]1CO[C@@](CCc2ccc(Cl)cc2)(Cn2ccnc2)O1 [QC-197, 1-{2-[2-(4-Chloro-phenyl)-ethyl]-4-thiocyanatomethyl-[1,3]dioxolan-2-ylmethyl}-1H-imidazole hydrochloride]
- IC50 (HO-1 (rat spleen); [6]): 3 ± 0.9 µM
- IC50 (HO-2 (rat brain); [5]): > 100 µM

SMILES: O=C(CCc1ccc(Cl)cc1)Cn1ccnc1 [QC-9, 4-(4-chlorophenyl)-1-(1H-imidazol-1-yl)-2-butanone hydrochloride]
- IC50 (HO-2 (rat brain); [2]): 43 ± 5 µM

SMILES: CC(C)(C(=O)c1ccccc1)n1ccnc1 [QC-187, 2-Imidazol-1-yl-2-methyl-1-phenyl-propan-1-one]
- IC50 (HO-1 (rat spleen); [6]): > 100 µM

- IC50 (HO-1 (rat spleen); [1]): > 100 µM
- IC50 (HO-2 (rat brain); [2]): > 100 µM
SMILES: NCCc1c[nH]cn1 [QC-67, Histamine dihydrochloride, reference compound]

- IC50 (HO-1 (rat spleen); [1]): > 100 µM
- IC50 (HO-2 (rat brain); [2]): > 100 µM
SMILES: CCCCn1ccnc1 [QC-122, 1-Butyl-1H-imidazole]

- IC50 (HO-1 (rat spleen); [1]): > 100 µM
- IC50 (HO-2 (rat brain); [2]): > 100 µM
SMILES: c1ccc(CCC2(Cn3cccn3)OCCO2)cc1 [QC-95, 2-phenylethyl-2-[(1H-pyrazole-1-yl)methyl]-1,3-dioxolane hydrochloride]

SMILES: O=C(CCc1ccccc1)Cn1ncnn1 [QC-117, 4-Phenyl-1-tetrazol-2-yl-butan-2-one hydrochloride]
- IC50 (HO-1 (rat spleen); [3]): 9.6 ± 0.2 µM
- IC50 (HO-2 (rat brain); [2]): 37 ± 25 µM

SMILES: O=C(CCc1ccccc1)Cn1cccn1 [QC-87, 4-phenyl-1-pyrazol-1-yl-butan-2-one hydrochloride]
- IC50 (HO-1 (rat spleen); [3]): > 100 µM

SMILES: Nc1cccc(SC[C@H]2CO[C@](CCc3ccc(Cl)cc3)(Cn3ccnc3)O2)c1 [QC-20, (2S,4R)-2-[2-(4-chlorophenyl)ethyl]-2-[(1H-imidazol-1-yl)methyl]-4-[{(3-aminophenyl)thio}methyl]-1,3-dioxolane hydrochloride]
- IC50 (HO-1 (rat spleen); [3]): 5.2 ± 0.4 µM

- IC50 (HO-1 (rat spleen); [1]): > 100 µM
SMILES: O=C(CCc1ccccc1)Cn1nccn1 [QC-101, 4-phenyl-1-[1,2,3]triazol-2-yl-butan-2-one]

- IC50 (HO-2 (rat brain); [2]): > 100 µM
SMILES: OC(Cn1cncn1)(Cn1cncn1)c1ccc(F)cc1F [QC-90, Fluconazole, reference compound]

SMILES: O=C(/C=C/c1ccccc1)CCn1ccnc1 [QC-223, 5-(1H-Imidazol-1-yl)-1-phenyl-pent-1-en-3-one hydrochloride]
- IC50 (HO-2 (rat brain); [5]): 31 ± 12 µM

- IC50 (HO-2 (rat brain); [2]): 34 ± 3 µM
SMILES: O=C(CCc1ccccc1)Cn1cncn1 [QC-86, 4-phenyl-1-[1,2,4]triazol-1-yl-butan-2-one hydrochloride]

SMILES: Fc1ccc(CCC2(Cn3ccnc3)OCCO2)cc1 [QC-55, 1-((2-(2-(4-Fluorophenyl)ethyl)-1,3-dioxolan-2-yl)methyl)-1H-imidazole hydrochloride]
- IC50 (HO-1 (rat spleen); [3]): 4 ± 1 µM

SMILES: O=C(CCc1ccc(F)cc1)Cn1ccnc1 [QC-54, 4-(4-Fluorophenyl)-1-(1H-imidazol-1-yl)-2-butanone hydrochloride]
- IC50 (HO-2 (rat brain); [4]): 2 ± 0.2 µM

SMILES: Nc1ccccc1SC[C@@H]1CO[C@](CCc2ccc(Cl)cc2)(Cn2ccnc2)O1 [QC-3, (2S,4S)-2-[2-(4-chlorophenyl)ethyl]-2-[(1H-imidazol-1-yl)methyl]-4-[{(2-aminophenyl)thio}methyl]-1,3-dioxolane dihydrochloride]
- IC50 (HO-2 (rat brain); [4]): 55 ± 26 µM

SMILES: O=C(CCc1ccc(Br)cc1)Cn1ccnc1 [QC-53, 4-(4-Bromophenyl)-1-(1H-imidazol-1-yl)-2-butanone hydrochloride]
- IC50 (HO-2 (rat brain); [4]): 10 ± 5 µM

- IC50 (HO-1 (rat spleen); [1]): 89 ± 1 µM
SMILES: O=C(CCc1ccccc1)Cn1ccnn1 [QC-91, 4-phenyl-1-(1H-[1,2,3]triazol-1-yl)butan-2-one]

SMILES: Nc1ccccc1SC[C@H]1CO[C@@](CCc2ccc(Cl)cc2)(Cn2ccnc2)O1 [QC-22, (2R,4R)-2-[2-(4-chlorophenyl)ethyl]-2-[(1H-imidazol-1-yl)methyl]-4-[{(2-aminophenyl)thio}methyl]-1,3-dioxolane dihydrochloride]
- IC50 (HO-1 (rat spleen); [3]): 87 ± 24 µM

- IC50 (HO-2 (rat brain); [2]): 43 ± 3 µM
SMILES: Cl.Clc1ccc(CC[C@@]2(Cn3ccnc3)OC[C@@H](COc3ccc(-c4ccccc4)cc3)O2)cc1 [QC-129, (2R,4S)-1-{4-Biphenyl-4-yloxymethyl)-2-[2-(4-chlorophenyl)ethyl]-[1,3]dioxolan-2-ylmethyl}-1H-imidazole hydrochloride]

SMILES: O=C(CCc1ccc(Br)cc1)Cn1cncn1 [QC-64, 4-(4-bromophenyl)-1-[1,2,4]triazol-1-yl-butan-2-one hydrochloride]
- IC50 (HO-2 (rat brain); [4]): 3 ± 2 µM
